Measured values as given in patent US9878007B2, “Syndecan peptides and polypeptides as inhibitors of vascular endothelial growth factor receptor-2 (VEGFR2) and very late antigen-4 (VLA-4)” (Wisconsin Alumni Research Foundation, priority 2015, dated 2018).

Experiments:
[1] = tested on: CAG myeloma cells; assay: Cell spreading / attachment assay of CAG myeloma cells on FN or VCAM-1; format: cell-based, human
Protocol: Nitrocellulose-coated slides were coated for 2 hr at 37° C. with 40 μg/ml FN (kindly provided by Dr. Donna Peters, University of Wisconsin-Madison) or 5 μg/ml recombinant VCAM-1/Fc chimera (R&D Systems) in calcium and magnesium-free PBS (CMF-PBS; 135 mM NaCl, 2.7 mM KCl, 10.2 mM Na2HPO4-7H20 and 1.75 mM KH2PO4, pH7.4). Slides were blocked for 1 hr at 37° C. with RPMI 1640 containing 1% heat-denatured BSA (plating medium). Cells in plating medium were allowed to attach and spread for 2.5 hr at 37° C. Slides were fixed in 4% EM grade paraformaldehyde (Electron Microscopy Sciences) in CMF-PBS and labeled for 30 min in 0.13 μM rhodamine phalloidin (Invitrogen) in CMF-PBS. Coverslips were mounted in non-fluorescing mounting medium (Immumount; Thermo Shandon) and allowed to dry. All images were acquired with a Nikon Microphot FX microscope using a 20× objective (Nikon; Ex 541-551, DM 580, Barrier 590), Photometric CoolSnap ES camera, and version 7.7.3.0 Metamorph© Imaging software (Molecular Devices). All images represent results from triplicate wells and at least three independent experiments.

[2] = target: T1, VLA-4 and VEGFR2 (Homo sapiens, UniProt P05556+P13612+P35968); assay: Immunostaining for co-localization of GST-S1ED with VLA-4 or VEGFR2; format: cell-based; details: HPSE^low cells on FN, 4 μM GST-S1ED, 2.5 hrs
T1 construct: the α4-integrin (VLA-4), which is expressed on myeloma cells; endogenous in cells; host or cells: CAG human myeloma cells (HPSE^low / HPSE^high) plated on fibronectin
Protocol: (§1) FIGS. 5A-C. Recombinant Sdc1 ectodomain (GST-S1ED) causes capture of VEGFR2 by VLA-4. (FIG. 5A) HPSE^high cells were plated on FN for 2.5 hrs and double stained for VLA-4 and VEGFR2. (FIG. 5B) HPSE^low cells were plated on FN in the presence of 4 μM GST-S1ED. After 2.5 hrs, cells were double-stained for GST to detect the GST-S1ED and VLA-4 or VEGFR2. (FIG. 5C) HPSE^low cells were plated on FN-pre-coated dishes for 2.5 hr in the absence or presence of GST-S1ED and whole cell lysates were prepared for immunoprecipitation with anti-VEGFR2 and VLA-4 antibodies. The associated VLA-4 was detected by immunoblotting with a VLA-4 antibody.
Fixed cells on FN-coated slides were quenched with 0.1 M glycine, permeabilized with CMF-PBS containing 0.1% Triton X-100 for 3 min at room temperature (RT) and blocked with 5% BSA in CMF-PBS. […]

[3] = target: T2, VEGFR2 and VLA-4 (Homo sapiens, UniProt P05556+P13612+P35968); assay: Immunoprecipitation of VEGFR2 and detection of associated VLA-4; format: cell-based; details: HPSE^low cells on FN, 2.5 hr, in the presence of GST-S1ED
T2 construct: the α4-integrin (VLA-4), which is expressed on myeloma cells; endogenous in cells; host or cells: CAG human myeloma cells (HPSE^low / HPSE^high) plated on fibronectin
Protocol: as §1
HPSE^low cells were plated on FN in the presence of 4 μg/ml GST or GST-S1ED for 2.5 hr. The cells were washed with CMF-PBS, then lysed for 20 min on ice in lysis buffer (0.5% Triton X-100 in 50 mM Hepes, 50 mM NaCl and 10 mM EDTA (pH 7.4) containing a 1:1000 dilution of protease inhibitor mixture set III (Calbiochem). Cell lysates were precleared at 13000 rpm for 20 min at 4° C. using 50 μg/ml isotype-matched nonspecific IgG and 30 μl of protein G agarose (GE Healthcare), then incubated at 4° C. overnight with either 10 μg/ml anti-α4-integrin (P1H4) or VEGFR2 (mAb 55B11) or nonspecific mouse IgG. Immunoprecipitated α4-integrin or VEGFR2 were dissolved in SDS sample buffer), electrophoresed and analyzed on western blots as described previously. […]

[4] = target: T3, VLA-4 (Homo sapiens, UniProt P05556+P13612); assay: GST pull down assay: capture of VLA-4 by GST-S1ED; format: binding
T3 construct: the α4-integrin (VLA-4), which is expressed on myeloma cells; endogenous in cells; host or cells: CAG human myeloma cells (HPSE^low), whole-cell lysate
Protocol: (§2) FIGS. 6A-G. Peptides derived from the active site in Sdc1 activate or inhibit adhesion and invasion. (FIG. 6A) Transwell migration assays towards FN (for 16 hrs) were performed for HPSE low or high cells in the presence of 0, 0.3, 3, and 30 μM of S1ED^210-240. Cells migrating to the bottom side of the filter were counted from five random images for each treatment. (FIG. 6B) The sequence of S1ED210-240 is shown (SEQ ID NO: 3), as well as […] truncation mutants of the peptide (SEQ ID NOs: 5, 2, 4 and 7). Amino acids shown in red appear necessary for the spreading and invasive activity. (FIG. 6C) Images of HPSE^low and HPSE^high cells plated on FN for 2 hr. (FIG. 6D) HPSE^low cells were treated with 0, 0.3, 3, 10 and 30 μM of S1ED^210-236, S1ED^210-233, or S1ED^214-240, plated on FN for 2 hr, fixed and stained with fluorescent phalloidin. Cells from five random images were quantified for cell attachment and cell spreading. (FIG. 6E) HPSE^high cells were treated with 0, 3, 10, and 30 μM of S1ED^210-236, S1ED^210-233, and S1ED^214-240, plated on FN for 2 hr, then fixed, imaged and quantified as in FIG. 6D. (FIG. 6F) Transwell migration assays towards FN (for 16 hr) were performed for HPSE^low or HPSE^high cells in the presence of 30 μM of S1ED^210-236, S1ED^210-233, S1ED^214-240 and Vandetanib. (FIG. 6G) HPSE^low cell lysates were incubated overnight with glutathione beads coated with GST or GST-S1ED in the absence or presence of 30 μM of S1ED^210-236, S1ED^210-233, and S1ED^214-240. Capture of VLA-4 or VEGFR2 was detected by immunoblotting. Sequences in FIG. 6B are 210-240 (SEQ ID NO: 3), 210-236 (SEQ ID NO: 2), 210-233 (SEQ ID NO: 4), 214-240 (SEQ ID NO: 5) and 214-236 (SEQ ID NO: 7).
(§3) CAG cells were washed with CMF-PBS and then lysed for 20 min on ice in lysis buffer. Cell debris was removed by centrifugation at 13000 rpm for 20 min at 4° C. Whole cell lysates were then incubated at 4° C. overnight with either 3 μM GST or 3 μM GST-S1ED in the absence or presence of 1 μM, 3 μM, and 10 μM S1ED^210-240 peptide. GST or GST-S1ED was captured by addition of glutathione Sepharose and the beads were washed with ice-cold lysis buffer and CMF-PBS, prior to addition of SDS-PAGE sample buffer and analyszed by electrophoresis and western blotting as described previously.

[5] = target: T4, VEGFR2 (Homo sapiens, UniProt P35968); assay: GST pull down assay: capture of VEGFR2 by GST-S1ED; format: binding
T4 construct: endogenous in cells; host or cells: CAG human myeloma cells (HPSE^low = empty vector; HPSE^high = human HPSE cDNA)
Protocol: as §2, §3

[6] = target: T2, VEGFR2 and VLA-4; assay: Activation / inhibition of Sdc1-mediated coupling of VEGFR2 to VLA-4 (FIGS. 6A-H); format: cell-based
Protocol: as §2
It is envisioned that a peptide that contains binding sites for both VEGFR2 and VLA-4, such as 210-236, has the capacity to bridge both receptors and link them together. This activates signaling that the cells use for migration and invasion. […]

[7] = tested on: CAG myeloma cells; assay: Transwell migration assay of CAG myeloma cells towards FN; format: cell-based, human; details: 16 hrs
Protocol: The bottom chambers of Transwell filter chambers (8 μm pores; Corning) were coated with 40 μg/ml of FN. Cells (5×10^5 in 0.2 ml plating medium) were placed in the upper chamber and incubated for 16 hr at 37° C. in the CO2 incubator. After incubation, cells in the upper chamber were removed and cells on the bottom side of the filter were fixed in 4% paraformaldehyde (PFA) and stained with 0.1% Crystal Violet before imaging. Cells from at least five random fields were counted.

[8] = tested on: human SKBr3 mammary carcinoma cells; assay: Breast cancer xenograft treated with systemic peptide; format: in vivo; details: SKBr3 xenografts in nude mice; 1.09 mg/kg/day by Alzet pump for 3 weeks
Protocol: FIG. 9. Treatment of breast cancer xenograft with systemic S1ED^210-240. 4×10^6 human SKBr3 mammary carcinoma cells were injected in a 1:1 mix with matrigel into the posterior flanks of immunodeficient nude (nu/nu) mice and allowed to establish for one week as palpable tumors. Alzet pumps were then implanted subcutaneously on the anterior dorsal backs of the animals, systemically delivering either phosphate buffered-saline alone (PBS) or S1ED 210-240 peptide in PBS for 3 weeks of treatment. Peptide was delivered at 1.09 mg/kg/day, a concentration estimated to achieve concentrations sufficient to block the VLA-4/VEGFR2 mechanism. Tumor sizes were measured with calipers and converted to tumor volumes using the equation […]. The data are shown as the mean of 12 tumors+/−S.E.M.

T4 sequence (P35968 20-1356): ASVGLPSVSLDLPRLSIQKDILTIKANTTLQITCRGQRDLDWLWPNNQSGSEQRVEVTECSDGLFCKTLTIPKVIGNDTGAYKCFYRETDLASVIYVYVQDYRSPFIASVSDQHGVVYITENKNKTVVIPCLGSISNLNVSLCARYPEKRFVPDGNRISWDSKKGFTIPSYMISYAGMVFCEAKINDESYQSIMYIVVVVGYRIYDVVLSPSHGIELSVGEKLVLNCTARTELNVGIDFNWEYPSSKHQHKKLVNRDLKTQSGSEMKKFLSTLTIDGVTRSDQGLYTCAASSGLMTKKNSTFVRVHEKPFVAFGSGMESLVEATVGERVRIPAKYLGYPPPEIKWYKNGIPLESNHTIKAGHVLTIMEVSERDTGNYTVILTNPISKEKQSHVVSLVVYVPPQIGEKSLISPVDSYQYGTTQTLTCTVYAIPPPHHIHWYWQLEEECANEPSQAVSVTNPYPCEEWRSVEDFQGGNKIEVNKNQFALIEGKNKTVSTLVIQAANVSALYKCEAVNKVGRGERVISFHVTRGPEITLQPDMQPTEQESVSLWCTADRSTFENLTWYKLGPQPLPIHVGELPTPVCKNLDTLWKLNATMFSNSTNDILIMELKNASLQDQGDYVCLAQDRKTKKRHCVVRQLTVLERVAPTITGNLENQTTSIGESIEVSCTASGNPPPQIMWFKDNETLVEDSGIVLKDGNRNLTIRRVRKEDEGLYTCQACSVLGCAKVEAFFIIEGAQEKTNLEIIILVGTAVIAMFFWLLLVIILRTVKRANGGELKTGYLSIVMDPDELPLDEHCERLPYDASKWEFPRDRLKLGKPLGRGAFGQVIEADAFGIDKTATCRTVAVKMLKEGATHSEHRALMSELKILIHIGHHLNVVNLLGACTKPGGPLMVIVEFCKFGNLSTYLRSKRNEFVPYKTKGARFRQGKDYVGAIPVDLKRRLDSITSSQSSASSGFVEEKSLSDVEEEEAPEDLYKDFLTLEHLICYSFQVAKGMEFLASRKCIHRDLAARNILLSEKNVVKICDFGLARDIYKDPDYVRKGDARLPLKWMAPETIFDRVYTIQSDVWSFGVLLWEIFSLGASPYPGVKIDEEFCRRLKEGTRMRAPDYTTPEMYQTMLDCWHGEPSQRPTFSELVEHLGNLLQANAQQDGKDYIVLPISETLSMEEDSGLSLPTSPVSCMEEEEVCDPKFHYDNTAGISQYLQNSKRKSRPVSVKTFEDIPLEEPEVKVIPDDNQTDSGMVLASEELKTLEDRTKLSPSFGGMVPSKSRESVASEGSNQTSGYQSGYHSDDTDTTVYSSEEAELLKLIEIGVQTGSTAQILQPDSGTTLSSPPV
T2 sequence (P35968 20-1356): as above
T2 sequence (P13612 34-1032): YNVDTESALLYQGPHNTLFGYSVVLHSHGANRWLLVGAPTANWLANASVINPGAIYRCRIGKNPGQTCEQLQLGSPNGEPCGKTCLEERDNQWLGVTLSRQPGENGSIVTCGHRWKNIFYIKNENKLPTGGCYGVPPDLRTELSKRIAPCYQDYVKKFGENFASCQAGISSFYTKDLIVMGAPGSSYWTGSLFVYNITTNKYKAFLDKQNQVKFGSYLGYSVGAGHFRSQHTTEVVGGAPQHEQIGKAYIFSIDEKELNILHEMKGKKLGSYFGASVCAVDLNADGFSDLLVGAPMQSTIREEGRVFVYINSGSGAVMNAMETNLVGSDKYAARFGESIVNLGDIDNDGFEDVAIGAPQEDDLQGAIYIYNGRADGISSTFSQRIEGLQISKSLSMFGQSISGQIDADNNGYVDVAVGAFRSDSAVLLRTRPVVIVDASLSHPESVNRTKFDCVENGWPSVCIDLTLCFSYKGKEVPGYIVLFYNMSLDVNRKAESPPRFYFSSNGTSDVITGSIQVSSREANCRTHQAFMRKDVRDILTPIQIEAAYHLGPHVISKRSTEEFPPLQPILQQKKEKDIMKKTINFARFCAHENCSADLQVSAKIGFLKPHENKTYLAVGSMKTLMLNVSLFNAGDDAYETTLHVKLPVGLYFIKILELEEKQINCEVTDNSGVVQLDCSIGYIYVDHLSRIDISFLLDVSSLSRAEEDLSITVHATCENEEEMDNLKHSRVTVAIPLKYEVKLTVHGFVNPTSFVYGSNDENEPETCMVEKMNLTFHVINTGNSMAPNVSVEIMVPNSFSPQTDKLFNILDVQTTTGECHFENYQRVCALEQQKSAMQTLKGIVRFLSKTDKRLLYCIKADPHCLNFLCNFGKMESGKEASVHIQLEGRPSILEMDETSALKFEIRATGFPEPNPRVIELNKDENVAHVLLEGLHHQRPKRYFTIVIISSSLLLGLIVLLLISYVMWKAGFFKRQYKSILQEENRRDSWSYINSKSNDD
T2 sequence (P05556 21-798): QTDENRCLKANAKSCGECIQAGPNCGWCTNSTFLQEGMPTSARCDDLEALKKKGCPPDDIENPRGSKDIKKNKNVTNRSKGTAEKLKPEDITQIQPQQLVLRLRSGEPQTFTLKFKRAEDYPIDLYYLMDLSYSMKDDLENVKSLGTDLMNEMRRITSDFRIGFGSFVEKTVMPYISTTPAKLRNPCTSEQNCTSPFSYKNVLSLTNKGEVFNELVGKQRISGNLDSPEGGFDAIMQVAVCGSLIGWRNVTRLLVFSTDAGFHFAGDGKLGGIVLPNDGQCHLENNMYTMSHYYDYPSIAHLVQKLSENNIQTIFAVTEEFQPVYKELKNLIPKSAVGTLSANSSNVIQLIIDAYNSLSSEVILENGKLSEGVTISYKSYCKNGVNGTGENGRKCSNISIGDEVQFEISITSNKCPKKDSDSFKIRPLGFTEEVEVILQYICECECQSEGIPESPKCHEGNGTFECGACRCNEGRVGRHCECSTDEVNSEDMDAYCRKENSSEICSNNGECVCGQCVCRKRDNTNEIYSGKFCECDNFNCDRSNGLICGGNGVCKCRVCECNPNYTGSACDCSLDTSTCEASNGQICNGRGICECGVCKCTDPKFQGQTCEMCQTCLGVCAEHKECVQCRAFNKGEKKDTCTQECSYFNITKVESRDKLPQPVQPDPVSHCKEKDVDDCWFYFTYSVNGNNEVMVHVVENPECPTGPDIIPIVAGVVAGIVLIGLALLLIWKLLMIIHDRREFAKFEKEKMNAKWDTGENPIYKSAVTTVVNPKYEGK
T3 sequence (P13612 34-1032): as the sequence (P13612 34-1032) above
T3 sequence (P05556 21-798): as the sequence (P05556 21-798) above
T1 sequence (P35968 20-1356): as the sequence (P35968 20-1356) above
T1 sequence (P13612 34-1032): as the sequence (P13612 34-1032) above
T1 sequence (P05556 21-798): as the sequence (P05556 21-798) above

capture of VLA-4 by GST-S1ED ([4]; CAG myeloma cell lysates) | capture of VEGFR2 by GST-S1ED ([5]; CAG myeloma cell lysates) | concentration at which the peptide inhibits the mechanism [6] | Substance | rescue of HPSE^high polarized phenotype blocked by MMP9 blocking antibody ([1]; on FN, GST-S1ED added) | induction of HPSE^low cell spreading by GST-S1ED constructs ([1]; on VCAM-1, 4 μM GST-S1ED constructs) | co-localization with VEGFR2 or VLA-4 [2] | co-immunoprecipitation of VLA-4 with VEGFR2 [3] | capture of VLA-4 by GST-S1ED ([4]; HMEC-1 cell lysate) | capture of VEGFR2 by GST-S1ED ([5]; HMEC-1 cell lysate) | induction of HPSE^low cell spreading by S1ED peptides ([1]; on VCAM-1, 0.3 μM peptide) | FN-induced migration of HPSE^high cells ([7]; 30 μM peptide) | migration of HPSE^low cells ([7]; 30 μM peptide) | migration of HPSE^low cells ([7]; low concentrations, 0.3-3 μM peptide) | size of the tumors [8]
captures both VLA-4 and VEGFR2 | captures both VLA-4 and VEGFR2 | – | GST-S1ED: recombinant GST-tagged Sdc1 ectodomain expressed in bacteria and devoid of HS | polarized phenotype is rescued | induced cell spreading | co-localized with VEGFR2 or VLA-4 at the protrusive lamellipodium | VLA-4 is co-immunoprecipitated with VEGFR2 | captures VLA-4 and VEGFR2 from HMEC-1 cells lysates | captures VLA-4 and VEGFR2 from HMEC-1 cells lysates | – | – | – | – | –
– | – | 30 µM | S1ED^210-240: peptide corresponding to amino acids 210-240 of syndecan-1 ectodomain (SEQ ID NO: 3) (DFTFETSGENTAVVAVEPDRRNQSPVDQGAT) | – | – | – | – | – | – | sufficient to induce HPSE^low cell spreading on VCAM-1 | decreased | failed to induce | induced migration of HPSE^low cells at low concentrations | effectively reduced the size of the tumors
